Water solubility and solubility data for 2 compounds are collected here from patent publication US20080207700A1, “Amino Acid Salts of Rosiglitazone” (priority 2005, published 2008).

For orientation: solubility means the dissolved amount per volume that the medium holds.

A short description of the data set: Solubility of rosiglitazone salts in buffer solutions (absorption at 345 nm). The method, then:
The following buffer solutions were used:
Thereafter, the suspensions were treated in an ultrasonic bath for 1 minute, the pH was checked and, where necessary, readjusted to the value given respectively below. Then, the solutions were 0.45 μm filtrated.
The absorption of thus produced solutions was measured at 345 nm.

As to `CN(CCOc1ccc(CC2SC(=O)NC2=O)cc1)c1ccccn1.O=C(O)/C=C\C(=O)O` (centres unmarked) [Maleate, rosiglitazone maleate], the water solubility (pH 6) was less than 0.1 mg/mL. For the setting “pH 11.8, aqueous buffer, thermodynamic from solid”, `CN(CCOc1ccc(CC2SC(=O)NC2=O)cc1)c1ccccn1` (centres unmarked) [Base, 5-(4-/2-(N-methyl-N-(2-pyridyl)amino)ethoxy/benzyl)-2,4-thiazolidinedione] registered a solubility at 1 min of more than 50 mg/mL.
